Key:
[1] = molecular target: T1, Human Vanilloid Receptor 1 (Homo sapiens, UniProt Q8NER1); assay: Human VR1 functional assay using FLIPR, Protocol 2; assay type: cell-based; settings: for h % I (1 uM): inhibition of capsaicin (EC80)-induced calcium response; for h % I (1 uM) / % E80 Capsaicin (1.2 uM): HEK 293 stably transfected hVR1; for IC50: decreased capsaicin (EC80)-induced calcium response, HEK 293 stably transfected hVR1, read-out: h IC50; for % E80 Capsaicin (1.2 uM): test compound-induced calcium response (agonist mode)
T1 construct: expressed in transfected cells; host or cells: HEK 293
T1 sequence (Q8NER1 whole entry): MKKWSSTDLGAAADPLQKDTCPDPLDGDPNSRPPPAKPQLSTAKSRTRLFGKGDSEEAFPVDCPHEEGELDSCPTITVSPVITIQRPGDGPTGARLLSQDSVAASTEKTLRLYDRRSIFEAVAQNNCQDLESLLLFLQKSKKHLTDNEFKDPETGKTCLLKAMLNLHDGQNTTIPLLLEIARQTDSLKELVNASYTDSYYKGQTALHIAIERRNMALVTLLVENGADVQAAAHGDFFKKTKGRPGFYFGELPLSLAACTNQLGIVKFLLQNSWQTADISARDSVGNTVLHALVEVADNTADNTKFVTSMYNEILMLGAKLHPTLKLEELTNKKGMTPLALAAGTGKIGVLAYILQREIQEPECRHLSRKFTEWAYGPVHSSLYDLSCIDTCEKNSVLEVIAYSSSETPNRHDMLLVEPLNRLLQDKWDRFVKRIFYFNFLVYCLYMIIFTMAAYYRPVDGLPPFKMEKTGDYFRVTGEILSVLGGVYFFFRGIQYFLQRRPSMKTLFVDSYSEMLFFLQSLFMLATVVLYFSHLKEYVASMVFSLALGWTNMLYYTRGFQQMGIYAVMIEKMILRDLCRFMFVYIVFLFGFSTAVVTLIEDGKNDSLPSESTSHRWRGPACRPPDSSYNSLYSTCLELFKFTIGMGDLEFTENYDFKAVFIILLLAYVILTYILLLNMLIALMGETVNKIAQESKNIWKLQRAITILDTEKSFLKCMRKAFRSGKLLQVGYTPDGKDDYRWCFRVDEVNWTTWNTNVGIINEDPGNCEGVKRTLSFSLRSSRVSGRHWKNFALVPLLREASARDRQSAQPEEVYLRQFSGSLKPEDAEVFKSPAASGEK
Experimental: The functional activity of the test compounds was determined by measuring changes in intracellular calcium concentration using FLIPR™ Calcium-3 Assay Kit and FLIPR™ technology.
HEK 293 cells stably transfected with Human Vanilloid Receptor 1 were maintained at 37° C. and 5% CO2 in: Dulbecco's Modification of Eagle's Medium (4.5 g/L glucose, L-glutamine, sodium pyruvate), 10% FBS, 1× Penicillin-Streptomycin, 400 ug/mL G418 Sulfate. Approximately 24 hours prior to assay, 5,000 cells/well were plated onto a 384-well black clear bottom poly-D-lysine-coated assay plate with a well volume of 25 μL using Titertek Multidrop.
On the day of the assay, the medium was dumped and 50 μL of dye (bulk kit vials diluted with 200 mL buffer) was loaded using Multidrop. Plates were incubated with dye at 37° C. for 30 minutes followed by 30 minutes incubation at room temperature. Then the plates were assayed by FLIPR™ with 2 additions: 12.5 μL test compound with 5 minutes data acquisition followed by 12.5 μL capsaicin at the EC80 concentration.
The EC50 values of test compounds were calculated based on a test compound-induced calcium response at the 5-minute time point. The IC50 values of compounds were calculated based on a decreased capsaicin-induced calcium response in the presence of test compound.

[2] = molecular target: T2, hVR1 receptors (Homo sapiens, UniProt Q8NER1); assay: Human VR1 binding assay ([3H]RTX); settings: membranes of HEK293 cells transfected with human VR1; for Ki: [3H]RTX binding; for h Binding % I (1 uM): inhibition of [3H]RTX binding
T2 construct: expressed in transfected cells; host or cells: HEK293
T2 sequence (Q8NER1 whole entry): as above
Experimental: Compounds of the present invention were tested for their ability to inhibit the binding of [^3H] RTX to hVR1 receptors in a [^3H] RTX binding assay as previously described (Zhang, Sui-Po. Improved ligand binding assays for vanilloid receptors. PCT Int. Appl. (2002), WO 0233411 A1 20020425 AN 2002:315209, and Grant, Elfrida R., Dubin, Adrienne E., Zhang, Sui-Po, Zivin, Robert A., Zhong, Zhong Simultaneous intracellular calcium and sodium flux imaging in human vanilloid receptor 1 (VR1)-transfected human embryonic kidney cells: a method to resolve ionic dependence of VR1-mediated cell death. J. Pharmacol. Exp. Ther., 2002, 300(1), 9-17.)
HEK293 cells were transfected with human VR1 vanilloid receptors and washed with Hank's balanced Salt Solution, dissociated with cell dissociation buffer (Sigma), and then centrifuged at 1000×g for 5 min. Cell pellets were homogenized in cold 20 mM HEPES buffer, pH 7.4, containing 5.8 mM NaCl, 320 mM sucrose, 2 mM MgCl2, 0.75 CaCl2 and 5 mM KCl and centrifuged at 1000×g for 15 min. The resultant supernate was then centrifuged at 40000×g for 15 min. The pelleted membranes were stored in a freezer at −80° C.
Approximately 120 μg protein/ml from membranes were incubated with indicated concentrations of [^3H]RTX in 0.5 ml of the HEPES buffer (pH 7.4) containing 0.25 mg/mL fatty acid-free bovine serum albumin at 37° C. for 60 min. The reaction mixture was then cooled to 4° C., added 0.1 mg α1-acid glycoprotein to each sample and incubated at 4° C. for 15 min. The samples were centrifuged at 18500×g for 15 min. The tip of the microcentrifuge tube containing the pellet was cut off. Bound radioactivity was quantified by scintillation counting. Non-specific binding was tested in the presence of 200 nM unlabeled RTX.
Data were calculated according to the equation: % inhibition=(total binding−binding)*100/(total binding−non specific binding). Ki values were calculated using a Prism program.

[3] = molecular target: T1, Human Vanilloid Receptor 1; assay: Human VR1 functional assay using FLIPR, Protocol 1; assay type: cell-based; settings: for inhibition at 9 µM: HEK293, 9 uM, HEK 293 cells transfected with hVR1, read-out: h % I (9 uM); for IC50: decreased capsaicin (EC80)-induced calcium response, HEK 293 hVR1, read-out: h IC50
In short: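 Transfected HEK 293 cells, plated 24 h before, were dye-loaded (30 min 37 °C, 30 min RT) and read by FLIPR calcium assay. Compound added with 5 min acquisition, then capsaicin at EC80. EC50 from compound-induced calcium at 5 min; IC50 from reduced capsaicin-induced response.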

[4] = inhibition of capsaicin (EC80)-induced calcium response

## CCOC(=O)C1(C)Oc2ccc(NC(=O)C3CCN(c4cc(F)c(F)c(F)c4)CC3)cc2NC1=O (stereo not shown) [Example 175, 2-Methyl-3-oxo-6-{[1-(3,4,5-trifluoro-phenyl)-piperidine-4-carbonyl]-amino}-3,4-dihydro-2H-benzo[1,4]oxazine-2-carboxylic acid ethyl ester]
[1]
  h % I (1 uM): 54%
  IC50: 873 nM

## O=C(O)CC1Oc2ccc(NC(=O)C3CCN(c4cc(F)c(F)c(F)c4)CC3)cc2NC1=O (stereo not shown) [Example 180, (3-Oxo-6-{[1-(3,4,5-trifluoro-phenyl)-piperidine-4-carbonyl]-amino}-3,4-dihydro-2H-benzo[1,4]oxazin-2-yl)-acetic acid]
[1]
  h % I (1 uM): 5%

## CN1C(=O)COc2ccc(NC(=O)C3CCN(c4cc(F)c(F)c(F)c4)CC3)cc21 [Example 172, 1-(3,4,5-Trifluoro-phenyl)-piperidine-4-carboxylic acid (4-methyl-3-oxo-3,4-dihydro-2H-benzo[1,4]oxazin-6-yl)-amide]
[1]
  % E80 Capsaicin (1.2 uM): 39%

## O=C1COc2cccc(NC(=O)C3CCN(c4cc(F)c(F)c(F)c4)CC3)c2N1 [Example 169, 1-(3,4,5-Trifluoro-phenyl)-piperidine-4-carboxylic acid (3-oxo-3,4-dihydro-2H-benzo[1,4]oxazin-5-yl)-amide]
[1]
  h % I (1 uM): 9%

## O=C1COc2cc(NC(=O)C3CCN(c4cc(F)c(F)c(F)c4)CC3)ccc2N1 [Example 170, 1-(3,4,5-Trifluoro-phenyl)-piperidine-4-carboxylic acid (3-oxo-3,4-dihydro-2H-benzo[1,4]oxazin-7-yl)-amide]
[1]
  h % I (1 uM): 55%
  IC50: 735 nM

## CCOC(=O)C1Oc2ccc(NC(=O)C3CCN(c4cc(F)c(F)c(F)c4)CC3)cc2NC1=O (stereo not shown) [Example 177, 3-Oxo-6-{[1-(3,4,5-trifluoro-phenyl)-piperidine-4-carbonyl]-amino}-3,4-dihydro-2H-benzo[1,4]oxazine-2-carboxylic acid ethyl ester]
[1]
  % E80 Capsaicin (1.2 uM): 13%

## CC1(C(=O)O)Oc2ccc(NC(=O)C3CCN(c4cc(F)c(F)c(F)c4)CC3)cc2NC1=O (stereo not shown) [Example 176, 2-Methyl-3-oxo-6-{[1-(3,4,5-trifluoro-phenyl)-piperidine-4-carbonyl]-amino}-3,4-dihydro-2H-benzo[1,4]oxazine-2-carboxylic acid]
[1]
  % E80 Capsaicin (1.2 uM): 116%

## COC(=O)CC1Oc2ccc(NC(=O)C3CCN(c4cc(F)c(F)c(F)c4)CC3)cc2NC1=O (stereo not shown) [Example 179, (3-Oxo-6-{[1-(3,4,5-trifluoro-phenyl)-piperidine-4-carbonyl]-amino}-3,4-dihydro-2H-benzo[1,4]oxazin-2-yl)-acetic acid methyl ester]
[1]
  h % I (1 uM): 54%
  IC50: 890 nM

## O=C1COc2ccc(NC(=O)C3CCN(c4cccc(F)c4)CC3)cc2N1 [Example 147, 1-(3-Fluoro-phenyl)-piperidine-4-carboxylic acid (3-oxo-3,4-dihydro-2H-benzo[1,4]oxazin-6-yl)-amide]
[2]
  Ki: 84 nM
[3]; [4]
  inhibition at 9 µM: 90%
[3]
  IC50: 520 nM

## O=C1COc2ccc(NC(=O)C3CCN(c4ccccc4F)CC3)cc2N1 [Example 151, 1-(2-Fluoro-phenyl)-piperidine-4-carboxylic acid (3-oxo-3,4-dihydro-2H-benzo[1,4]oxazin-6-yl)-amide]
[2]
  Ki: 1470 nM
[3]; [4]
  inhibition at 9 µM: 62.3%
[3]
  IC50: 670 nM

## O=C(Nc1cccc2[nH]ccc12)C1CCN(c2cccc(C(F)(F)F)c2)CC1 [Example 21, 1-(3-Trifluoromethyl-phenyl)-piperidine-4-carboxylic acid (1H-indol-4-yl)-amide]
[2]
  h Binding % I (1 uM): 86.9%
  Ki: 134 nM
[3]; 9 uM, inhibition of capsaicin (EC80)-induced calcium response, HEK 293 cells transfected with hVR1
  h % I (9 uM): 102.0%
[3]
  IC50: 160 nM

## O=C1COc2c(cccc2NC(=O)C2CCN(c3cc(F)c(F)c(F)c3)CC2)N1 [Example 171, 1-(3,4,5-Trifluoro-phenyl)-piperidine-4-carboxylic acid (3-oxo-3,4-dihydro-2H-benzo[1,4]oxazin-8-yl)-amide]
[1]
  % E80 Capsaicin (1.2 uM): 17%

## O=C1CSc2ccc(NC(=O)C3CCN(c4cc(F)c(F)c(F)c4)CC3)cc2N1 [Example 173, 1-(3,4,5-Trifluoro-phenyl)-piperidine-4-carboxylic acid (3-oxo-3,4-dihydro-2H-benzo[1,4]thiazin-6-yl)-amide]
[1]
  h % I (1 uM): 37%
  IC50: 1960 nM

## O=C1COc2ccc(NC(=O)C3CCN(c4ccccc4Br)CC3)cc2N1 [Example 153, 1-(2-Bromo-phenyl)-piperidine-4-carboxylic acid (3-oxo-3,4-dihydro-2H-benzo[1,4]oxazin-6-yl)-amide]
[2]
  Ki: 71 nM
[3]; [4]
  inhibition at 9 µM: 91.7%
[3]
  IC50: 160 nM

## O=C(Nc1cccc2[nH]ccc12)C1CCN(c2cccc(C(F)(F)F)c2)CC1 [Example 8, 1-(3-Trifluoromethyl-phenyl)-piperidine-4-carboxylic acid (1H-indol-4-yl)-amide]
[2]
  h Binding % I (1 uM): 87.0%
  Ki: 134 nM
[3]; [4]
  inhibition at 9 µM: 101%
[3]
  IC50: 230 nM

## CCc1ccccc1N1CCC(C(=O)Nc2ccc3c(c2)NC(=O)CO3)CC1 [Example 142, 1-(2-Ethyl-phenyl)-piperidine-4-carboxylic acid (3-oxo-3,4-dihydro-2H-benzo[1,4]oxazin-6-yl)-amide]
[2]
  Ki: 125 nM
[3]; [4]
  inhibition at 9 µM: 96.3%
[3]
  IC50: 150 nM

## CC(C)c1ccccc1N1CCC(C(=O)Nc2ccc3c(c2)NC(=O)CO3)CC1 [Example 143, 1-(2-Isopropyl-phenyl)-piperidine-4-carboxylic acid (3-oxo-3,4-dihydro-2H-benzo[1,4]oxazin-6-yl)-amide]
[2]
  Ki: 78 nM
[3]; [4]
  inhibition at 9 µM: 101%
[3]
  IC50: 180 nM

## CC(C)(C)c1ccc(N2CCC(C(=O)Nc3ccc4c(c3)NC(=O)CO4)CC2)cc1 [Example 146, 1-(4-tert-Butyl-phenyl)-piperidine-4-carboxylic acid (3-oxo-3,4-dihydro-2H-benzo[1,4]oxazin-6-yl)-amide]
[2]
  Ki: 132 nM
[3]; [4]
  inhibition at 9 µM: 112%
[3]
  IC50: 90 nM

## Cc1cccc(N2CCC(C(=O)Nc3ccc4c(c3)NC(=O)CO4)CC2)c1C [Example 145, 1-(2,3-Dimethyl-phenyl)-piperidine-4-carboxylic acid (3-oxo-3,4-dihydro-2H-benzo[1,4]oxazin-6-yl)-amide]
[2]
  Ki: 27 nM
[3]; [4]
  inhibition at 9 µM: 99.5%
[3]
  IC50: 60 nM

## CC(=O)N1CCc2ccc(NC(=O)C3CCN(c4cccc(C(F)(F)F)c4)CC3)cc21 [Example 16, 1-(3-Trifluoromethyl-phenyl)-piperidine-4-carboxylic acid (1-acetyl-2,3-dihydro-1H-indol-6-yl)-amide]
[2]
  h Binding % I (1 uM): 15.0%
[3]; [4]
  inhibition at 9 µM: 83%
[3]
  IC50: 800 nM

## Cc1cccc(N2CCC(C(=O)Nc3ccc4c(c3)NC(=O)CO4)CC2)c1 [Example 140, 1-m-Tolyl-piperidine-4-carboxylic acid (3-oxo-3,4-dihydro-2H-benzo[1,4]oxazin-6-yl)-amide]
[2]
  Ki: 225 nM
[3]; [4]
  inhibition at 9 µM: 84%
[3]
  IC50: 490 nM
